In patent US9877946B2, “Method for treating, managing, inhibiting, or preventing obesity” (RESEARCH & BUSINESS FOUNDATION SUNGKYUNKWAN UNIVERSITY, priority 2014, dated 2018):

Assays:
PRDM4 gene = assay: Microarray for gene inducing bioactivity of butein; type: cell-based
[1] = tested on: PRDM4 expression in C3H10T1/2 cells; assay: PRDM4 expression in differentiated C3H10T1/2 adipocytes, real-time PCR; type: cell-based, mouse; details: 24 hours, FIG. 25
Experimental: To confirm an anti-obesity effect of the butein derivative, changes in expression levels of UCP-1 and PRDM4 by treatment of the butein derivative (Formulas 1-1 to 1-8 and 1-10 to 1-14) were measured. Differentiated C3H10T1/2 adipocytes were treated with the butein and the derivatives for 24 hours, and the expression levels of UCP-1 and PRDM4 were investigated using real-time PCR.

[2] = tested on: UCP-1 expression in C3H10T1/2 cells; assay: UCP-1 expression in differentiated C3H10T1/2 adipocytes, real-time PCR; type: cell-based, mouse
Experimental: Differentiated C3H10T1/2 adipocytes were treated with the butein and the derivatives for 24 hours, and the expression levels of UCP-1 and PRDM4 were investigated using real-time PCR.

[3] = tested on: T37i cells (brown fat precursor cells); assay: Brown adipocyte marker expression in differentiated T37i cells, real-time PCR; type: cell-based; details: butein 5, 10 and 20 μM, 6 days, FIG. 2
Experimental: To confirm an increase in number of brown adipocytes by butein treatment, brown fat precursor cells, T37i cells, were used. The T37i cells were cultured in a medium containing 5 μg/ml insulin and 1 nM triiodothyronine (T3) for 2 days, and then the differentiation into adipocytes using a medium containing 5 μg/ml insulin was induced for 6 to 8 days. The differentiation-induced adipocytes were treated with butein for 6 days by concentrations (5, 10 and 20 μM) and stained with Oil Red O, and then mRNA expression levels of PPARγ and aP2 related to the adipocyte differentiation and brown adipocyte markers, that is, UCP-1, PRDM16 and Cidea genes, were confirmed through real-time PCR.

[4] = tested on: HFD obesity-induced C57BL6/J mice; assay: HFD obesity-induced mice, comparison with resveratrol-treated group; type: in vivo; details: for body weight compared to the control: 28-week-old mice
Experimental: To confirm an anti-obesity effect of butein, obesity was induced to C57BL6/J mice by HFD, and changes in body weight according to butein treatment were confirmed. Specifically, 7-week-old mice were adjusted for 1 week, and fed with HFD (60% fat, purchased from Research Diet) for 12 weeks to induce obesity. Afterward, 30 mg/kg of butein was treated daily into 8 of the obesity-induced mice for 8 weeks. As controls, a PBS-treated group (7 mice) and a group (8 mice) treated with resveratrol, which is known to have an effect on preventing obesity, were used. After the 8-week treatment, increases in body weight were compared, and 8 weeks later, a GTT and a ITT were performed in combination with a hematological analysis.

[5] = tested on: HFD obesity-induced C57BL6/J mice; assay: HFD obesity-induced mice, comparison with PBS-treated group; type: in vivo
Experimental: To confirm an anti-obesity effect of butein, obesity was induced in C57BL6/J mice by HFD, and the mice were treated with butein through abdominal injection. 7-week-old mice were adjusted for 1 week, fed with HFD (60% fat, purchased from Research Diet) for 8 weeks to induce obesity, and butein was treated daily at 5 mg/kg and 15 mg/kg into two groups of mice, each group having 7 mice. As controls, a normal diet food intake group (5 mice) and a group fed with HFD and treated with PBS (7 mice) were used. Increases in body weight during the treatment period and weights of various organs were compared, and after 8 weeks, a glucose tolerance test (GTT) and an insulin tolerance test (ITT) were performed in combination with histological and hematological analyses.

[6] = tested on: epididymal fat, subcutaneous fat and brown fat; assay: Marker expression in adipose tissues of mice treated for 14 days, real-time PCR; type: in vivo; details: 5 mg/kg abdominal injection, FIGS. 6 to 8
Experimental: To examine activities of butein to increase the numbers of beige and brown adipocytes and inhibit white adipocytes in vivo, expression of markers in adipose tissues were measured after mice were treated with butein for 14 days. 6 mice were treated with 5 mg/kg of the butein through abdominal injection, and as a control, 6 mice were treated with only a solvent through abdominal injection. After 14 days, expression levels of markers for white fat and beige (brown) fat in epididymal fat, subcutaneous fat and brown fat were confirmed through real-time PCR.

[7] = tested on: UCP-1 expression in MEF cells; assay: UCP-1 expression in MEF cells; type: cell-based, mouse; details: DMSO-treated control, FIG. 4
Excerpt: An increase in expression level of UCP-1 by butein treatment in C3H10T1/2 cells was compared to those by treatment of sulfuretin, fisetin, resveratrol and genistein, which are known as materials having an influence on adipocytes, and the increase in expression level of UCP-1 by butein treatment in MEF cells was compared to a DMSO-treated group as a control.

[8] = differentiated C3H10T1/2 adipocytes, 24 hours, FIG. 25
[9] = HFD 8 weeks, butein 5 and 15 mg/kg daily, vs HFD control

Question: Which PRDM4 gene expression (PRDM4 gene) does the source give for `O=C(/C=C/c1ccc(O)c(O)c1)c1ccc(O)cc1O` [Compound 1-1, butein] here?
Answer: increased in expression by more than approximately twice

Question: And the “expression level of PRDM4” value [1]?
Answer: significant increases

Question: What about the “expression of UCP-1 compared to sulfuretin, fisetin, resveratrol and genistein” value ([2]; C3H10T1/2 cells, FIG. 3) of the same compound?
Answer: increased more than three times

Question: What about the “expression of UCP-1” value ([2]; butein 5, 10 and 20 μM, 24 hours, FIG. 1) of the same compound?
Answer: the expression of UCP-1 increased

Question: And the “expression level of UCP-1” value [2, 8]?
Answer: significant increases

Question: What about the “expression level of UCP-1” value ([2]; differentiated C3H10T1/2 cells, 24 hours, FIG. 5) of the same compound?
Answer: specifically and considerably increased

Question: What about the “expression of Cidea” value [3] of the same compound?
Answer: increased

Question: What about the “expression of PRDM16” value [3] of the same compound?
Answer: increased

Question: What about the “expression of UCP-1” value [3] of the same compound?
Answer: increased

Question: What about the “effect of decreasing body weight compared to the resveratrol-treated group” value ([4]; 30 mg/kg daily for 8 weeks after 12 weeks HFD) of the same compound?
Answer: considerably excellent effect of decreasing a body weight

Question: What about the “decrease in body weight compared to the PBS-treated group” value ([4]; 30 mg/kg daily for 8 weeks after 12 weeks HFD, FIG. 20) of the same compound?
Answer: approximately 10%

Question: And the “body weight compared to the control” value [4]?
Answer: considerable decrease

Question: And the “glucose-insulin metabolism (GTT and ITT)” value ([4]; HFD-But group, FIG. 21)?
Answer: considerably improved

Question: And the rectal temperature ([4]; HFD-But group, FIG. 21)?
Answer: increased

Question: And the food intake ([4]; between three groups, FIG. 20C)?
Answer: no differences

Question: What about the “UCP-1, PRDM16, Cox8b, PGC-1α, CIDEA, COX7a and Dio2 specifically expressed in beige adipocytes” value ([5]; 15 mg/kg of butein, 8 weeks) of the same compound?
Answer: increased

Question: And the “glucose-insulin metabolism (GTT and ITT)” value ([5]; 15 mg/kg of butein, 8 weeks)?
Answer: significantly improved

Question: And the body weight [5, 9]?
Answer: tendency to concentration-dependent decreases

Question: And the “weights of adipose tissues of livers and internal organs” value [5, 9]?
Answer: tendency to concentration-dependent decreases

Question: What about the “hematological analysis: glucose, cholesterol, neutral fat, HDL, LDL and a fatty acid” value ([5]; high dosage of butein) of the same compound?
Answer: significant differences

Question: What about the “adipocyte markers PPARγ and aP2” value [6] of the same compound?
Answer: decreases

Question: And the “brown adipocyte markers UCP-1, PRDM16 Cox8b and Cidea” value [6]?
Answer: increases

Question: And the “white adipocyte markers resistin and Nnmt” value [6]?
Answer: decreases

Question: And the “expression of UCP-1 compared to the control” value [7]?
Answer: more than 10 times

Question: Which “expression level of PRDM4 compared to the butein-treated group (BFI)” value [1] does the source give for `COc1cc(C2CC(=O)c3ccc(O)cc3O2)ccc1F` (stereo not drawn) [Compound 1-11, 2-(4-fluoro-3-methoxyphenyl)-7-hydroxychroman-4-one] here?
Answer: considerably increased

Question: And the “expression level of UCP-1 compared to the butein-treated group (BFI)” value [2, 8]?
Answer: considerably increased

Question: Which “expression level of PRDM4 compared to the butein-treated group (BFI)” value [1] does the source give for `O=C(/C=C/c1ccc(O)c(O)c1)c1ccc(O)cc1` [Compound 1-12, (E)-3-(3,4-dihydroxyphenyl)-1-(4-hydroxyphenyl)prop-2-en-1-one] here?
Answer: considerably increased

Question: What about the “expression level of UCP-1 compared to the butein-treated group (BFI)” value [2, 8] of the same compound?
Answer: considerably increased

Question: `Oc1ccc(C=Cc2cc(O)cc(O)c2)cc1` [resveratrol, reference compound] was tested. Which “body weight compared to the control” value [4] did it give?
Answer: no changes

Question: What about the food intake ([4]; mouse, in vivo) of the same compound?
Answer: no differences
